Assay type in all cases: cell-based
One experiment has as its system Mino cells. The experiment can be described thus: Antiproliferative effect, MTS cell viability assay, Mino cells. As to conditions: Homo sapiens, MINO, Mino mantle cell lymphoma cells; read-out: IC50 (anti-proliferation) Mino cells. The essentials:
(§1)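 Readout was MTS-derived formazan absorbance (490 nm) reflecting metabolically active cells. Treatment lasted 72 h over a 0–10 μM range (0.001, 0.01, 0.1, 1, 10 μM) in JeKo-1 and Mino B-cell malignancy cells.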
(Tetrazolium assays rely on reduction of a dye to a coloured formazan, in cell work by metabolically active cells.)

The next experiment deals with JeKo-1 cells. The experiment can be described thus: Antiproliferative effect, MTS cell viability assay, JeKo-1 cells. To be noted: Homo sapiens; JeKo-1 mantle cell lymphoma cells; read-out: IC50 (anti-proliferation) JeKO-1 cells. Put shortly: as §1
A further experiment has as its target BTK (Homo sapiens, UniProt Q06187). As to the kind of experiment: BTK degradation, DC50 and Dmax of Table 1 (cell line not given). Set-up: endogenous in cells. To be noted: for DC50: concentration giving 50% reduction of BTK expression level.

BTK, sequence (Q06187 whole entry): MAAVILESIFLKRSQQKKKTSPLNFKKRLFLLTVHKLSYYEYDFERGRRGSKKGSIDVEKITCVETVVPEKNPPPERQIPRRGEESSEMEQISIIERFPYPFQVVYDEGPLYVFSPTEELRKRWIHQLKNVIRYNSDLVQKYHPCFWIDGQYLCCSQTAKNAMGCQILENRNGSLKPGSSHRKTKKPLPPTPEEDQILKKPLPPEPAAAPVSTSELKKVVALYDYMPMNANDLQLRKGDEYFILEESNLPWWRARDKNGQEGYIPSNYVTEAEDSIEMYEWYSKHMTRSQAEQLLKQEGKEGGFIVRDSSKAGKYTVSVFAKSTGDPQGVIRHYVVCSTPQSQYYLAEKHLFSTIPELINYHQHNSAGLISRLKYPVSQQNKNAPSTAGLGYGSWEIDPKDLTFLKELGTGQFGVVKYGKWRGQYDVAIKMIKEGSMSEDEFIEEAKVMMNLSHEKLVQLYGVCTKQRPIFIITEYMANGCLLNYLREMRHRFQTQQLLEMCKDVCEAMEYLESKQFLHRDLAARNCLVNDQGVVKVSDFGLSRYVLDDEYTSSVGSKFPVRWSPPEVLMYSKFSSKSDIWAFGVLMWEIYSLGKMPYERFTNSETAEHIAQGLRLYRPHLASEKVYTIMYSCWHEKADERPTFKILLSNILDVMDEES

Regarding `Nc1ncnc2c1c(-c1ccc(Oc3ccccc3)cc1)nn2[C@@H]1CCCN(C2CCN(CCCN3CCC(c4ccc5c(c4)C(=O)N(C4CCC(=O)NC4=O)C5=O)CC3)CC2)C1` (stereo partly drawn) [Compound 153, 5-(1-(3-((R)-3-(4-amino-3-(4-phenoxyphenyl)-1H-pyrazolo[3,4-d]pyrimidin-1-yl)-[1,4′-bipiperidin]-1′-yl)propyl)piperidin-4-yl)-2-(2,6-dioxopiperidin-3-yl)isoindoline-1,3-dione], the IC50 with Mino cells was above 10000 nM. Moreover, the IC50 in the experiment with JeKo-1 cells is above 10000 nM. At BTK, this compound returned a Dmax above 75% and a DC50 above 50 nM.
Consider `Nc1ncnc2c1c(-c1ccc(Oc3ccccc3)cc1)nn2C1CCN(C(=O)N2CCC(CCN3CCC(c4ccc5c(c4)CN(C4CCC(=O)NC4=O)C5=O)CC3)CC2)CC1` (stereo not drawn) [Compound 104, 3-(5-(1-(2-(1-(4-(4-amino-3-(4-phenoxyphenyl)-1H-pyrazolo[3,4-d]pyrimidin-1-yl)piperidine-1-carbonyl)piperidin-4-yl)ethyl)piperidin-4-yl)-1-oxoisoindolin-2-yl)piperidine-2,6-dione], for which, in the experiment on Mino cells, the IC50 lay within 1000 to 10000 nM. Moreover, in the experiment with JeKo-1 cells, the IC50 lay in the range of 1000 to 10000 nM. On BTK, this compound registered a Dmax above 90% and a 50% degradation concentration (DC50) of 10 to 50 nM.
Regarding `Nc1ncnc2c1c(-c1ccc(Oc3ccccc3)cc1)nn2[C@@H]1CCCN(C2CCN(C(=O)N3CCN(CCCC4CCN(c5ccc6c(c5)C(=O)N(C5CCC(=O)NC5=O)C6=O)CC4)CC3)CC2)C1` (stereo partly drawn) [Compound 189, 5-(4-(3-(4-((R)-3-(4-amino-3-(4-phenoxyphenyl)-1H-pyrazolo[3,4-d]pyrimidin-1-yl)-[1,4′-bipiperidine]-1′-carbonyl)piperazin-1-yl)propyl)piperidin-1-yl)-2-(2,6-dioxopiperidin-3-yl)isoindoline-1,3-dione], in the experiment with Mino cells, the IC50 fell in the range of 1000 to 10000 nM. For the same compound, the IC50 with JeKo-1 cells is above 10000 nM. In addition, on BTK, the greatest degradation seen (Dmax) is above 75% and the DC50 was above 50 nM.
Taken in the same sequence, the figures for `Nc1ncnc2c1c(-c1ccc(Oc3ccccc3)cc1)nn2C1CCN(C(=O)N2CCC(CC3CCN(c4ccc5c(c4)C(=O)N(C4CCC(=O)NC4=O)C5=O)CC3)CC2)CC1` (stereo not drawn) [Compound 89, 5-(4-((1-(4-(4-amino-3-(4-phenoxyphenyl)-1H-pyrazolo[3,4-d]pyrimidin-1-yl)piperidine-1-carbonyl)piperidin-4-yl)methyl)piperidin-1-yl)-2-(2,6-dioxopiperidin-3-yl)isoindoline-1,3-dione] were below 1000 nM, 1000 to 10000 nM, above 90% and 10 to 50 nM.
Turning to `Nc1ncnc2c1c(-c1ccc(Oc3ccccc3)cc1)nn2C1CCN(C(=O)N2CCN(CC3CCN(c4ccc5c(c4)C(=O)N(C4CCC(=O)NC4=O)C5=O)CC3)CC2)CC1` (stereo not drawn) [Compound 87, 5-(4-((4-(4-(4-amino-3-(4-phenoxyphenyl)-1H-pyrazolo[3,4-d]pyrimidin-1-yl)piperidine-1-carbonyl)piperazin-1-yl)methyl)piperidin-1-yl)-2-(2,6-dioxopiperidin-3-yl)isoindoline-1,3-dione], the IC50 in the experiment on Mino cells was 1000 to 10000 nM. The IC50 in the experiment on JeKo-1 cells was below 1000 nM. At BTK, this compound had a Dmax above 90% and a DC50 of 10 to 50 nM.
As for `Nc1ncnc2c1c(-c1ccc(Oc3ccccc3)cc1)nn2[C@@H]1CCCN(C2CCN(C(=O)N3CCN(CCCN4CCN(c5ccc6c(c5)C(=O)N(C5CCC(=O)NC5=O)C6=O)CC4)CC3)CC2)C1` (stereo partly drawn) [Compound 187, 5-(4-(3-(4-((R)-3-(4-amino-3-(4-phenoxyphenyl)-1H-pyrazolo[3,4-d]pyrimidin-1-yl)-[1,4′-bipiperidine]-1′-carbonyl)piperazin-1-yl)propyl)piperazin-1-yl)-2-(2,6-dioxopiperidin-3-yl)isoindoline-1,3-dione], the IC50 in the experiment with Mino cells and with JeKo-1 cells was 1000 to 10000 nM in each case. The Dmax on BTK is above 75%. At BTK, this compound displayed a DC50 above 50 nM.
As to `Nc1ncnc2c1c(-c1ccc(Oc3ccccc3)cc1)nn2C1CCN(C(=O)N2CCN(CCCN3CCN(c4ccc5c(c4)C(=O)N(C4CCC(=O)NC4=O)C5=O)CC3)CC2)CC1` (stereo not drawn) [Compound 119, 5-(4-(3-(4-(4-(4-amino-3-(4-phenoxyphenyl)-1H-pyrazolo[3,4-d]pyrimidin-1-yl)piperidine-1-carbonyl)piperazin-1-yl)propyl)piperazin-1-yl)-2-(2,6-dioxopiperidin-3-yl)isoindoline-1,3-dione], in the experiment with Mino cells, the IC50 fell in the range of 1000 to 10000 nM. In the experiment with JeKo-1 cells, the IC50 is above 10000 nM. On BTK, the maximal degradation (Dmax) was above 75% and the DC50 is above 50 nM.
For `Nc1ncnc2c1c(-c1ccc(Oc3ccccc3)cc1)nn2[C@@H]1CCCN(C(=O)N2CCC(CCC3CCN(c4ccc5c(c4)C(=O)N(C4CCC(=O)NC4=O)C5=O)CC3)CC2)C1` (stereo partly drawn) [Compound 71, 5-(4-(2-(1-((R)-3-(4-amino-3-(4-phenoxyphenyl)-1H-pyrazolo[3,4-d]pyrimidin-1-yl)piperidine-1-carbonyl)piperidin-4-yl)ethyl)piperidin-1-yl)-2-(2,6-dioxopiperidin-3-yl)isoindoline-1,3-dione], in the experiment on Mino cells, the IC50 lay in the range of 1000 to 10000 nM. For the same compound, in the experiment with JeKo-1 cells, the IC50 lay in the range of 1000 to 10000 nM. At BTK, this compound returned a Dmax above 90% and a DC50 below 10 nM.
`Nc1ncnc2c1c(-c1ccc(Oc3ccccc3)cc1)nn2[C@@H]1CCCN(C2CCN(C(=O)N3CCC(CN4CCC(c5ccc6c(c5)C(=O)N(C5CCC(=O)NC5=O)C6=O)CC4)CC3)CC2)C1` (stereo partly drawn) [Compound 173, 5-(1-((1-((R)-3-(4-amino-3-(4-phenoxyphenyl)-1H-pyrazolo[3,4-d]pyrimidin-1-yl)-[1,4′-bipiperidine]-1′-carbonyl)piperidin-4-yl)methyl)piperidin-4-yl)-2-(2,6-dioxopiperidin-3-yl)isoindoline-1,3-dione]: the IC50 with Mino cells was 1000 to 10000 nM. The IC50 with JeKo-1 cells is below 1000 nM. In addition, at BTK, the Dmax is above 90% and the DC50 was 10 to 50 nM.
As for `Nc1ncnc2c1c(-c1ccc(Oc3ccccc3)cc1)nn2[C@@H]1CCCN(C2CCN(CCCC3CCN(c4ccc5c(c4)C(=O)N(C4CCC(=O)NC4=O)C5=O)CC3)CC2)C1` (stereo partly drawn) [Compound 155, 5-(4-(3-((R)-3-(4-amino-3-(4-phenoxyphenyl)-1H-pyrazolo[3,4-d]pyrimidin-1-yl)-[1,4′-bipiperidin]-1′-yl)propyl)piperidin-1-yl)-2-(2,6-dioxopiperidin-3-yl)isoindoline-1,3-dione], the IC50 with Mino cells was above 10000 nM. In addition, the IC50 with JeKo-1 cells is above 10000 nM. At BTK, this compound yielded a Dmax above 50% and a DC50 above 50 nM.
Regarding `Nc1ncnc2c1c(-c1ccc(Oc3ccccc3)cc1)nn2C1CCN(CCOCCOCCC2CCN(c3ccc4c(c3)C(=O)N(C3CCC(=O)NC3=O)C4=O)CC2)CC1` (stereo not drawn) [Compound 17, 5-(4-(2-(2-(2-(4-(4-amino-3-(4-phenoxyphenyl)-1H-pyrazolo[3,4-d]pyrimidin-1-yl)piperidin-1-yl)ethoxy)ethoxy)ethyl)piperidin-1-yl)-2-(2,6-dioxopiperidin-3-yl)isoindoline-1,3-dione], the IC50 in the experiment on Mino cells lay within 1000 to 10000 nM. In addition, the IC50 in the experiment on JeKo-1 cells lay within 1000 to 10000 nM. On BTK, this compound displayed a maximal degradation (Dmax) above 90% and a DC50 below 10 nM.
In the case of `Nc1ncnc2c1c(-c1ccc(Oc3ccccc3)cc1)nn2[C@@H]1CCCN(C2CCN(C(=O)N3CCN(CCCN4CCN(c5ccc6c(c5)CN(C5CCC(=O)NC5=O)C6=O)CC4)CC3)CC2)C1` (stereo partly drawn) [Compound 188, 3-(5-(4-(3-(4-((R)-3-(4-amino-3-(4-phenoxyphenyl)-1H-pyrazolo[3,4-d]pyrimidin-1-yl)-[1,4′-bipiperidine]-1′-carbonyl)piperazin-1-yl)propyl)piperazin-1-yl)-1-oxoisoindolin-2-yl)piperidine-2,6-dione], the IC50 with Mino cells and with JeKo-1 cells was 1000 to 10000 nM throughout. This compound gave a Dmax on BTK above 75%. The DC50 at BTK was above 50 nM.
Take `Nc1ncnc2c1c(-c1ccc(Oc3ccccc3)cc1)nn2[C@@H]1CCCN(CC2CCN(CCCN3CCN(c4ccc5c(c4)C(=O)N(C4CCC(=O)NC4=O)C5=O)CC3)CC2)C1` (stereo partly drawn) [Compound 137, 5-(4-(3-(4-(((R)-3-(4-amino-3-(4-phenoxyphenyl)-1H-pyrazolo[3,4-d]pyrimidin-1-yl)piperidin-1-yl)methyl)piperidin-1-yl)propyl)piperazin-1-yl)-2-(2,6-dioxopiperidin-3-yl)isoindoline-1,3-dione]: the IC50 in the experiment on Mino cells and with JeKo-1 cells was above 10000 nM each time. Moreover, on BTK, the greatest degradation seen (Dmax) was above 75%. The compound further returned a DC50 on BTK of 10 to 50 nM.
For the compound `Nc1ncnc2c1c(-c1ccc(Oc3ccccc3)cc1)nn2[C@@H]1CCCN(CC2CCN(C(=O)N3CCN(c4ccc5c(c4)CN(C4CCC(=O)NC4=O)C5=O)CC3)CC2)C1` (stereo partly drawn) [Compound 26, 3-(5-(4-(4-(((R)-3-(4-amino-3-(4-phenoxyphenyl)-1H-pyrazolo[3,4-d]pyrimidin-1-yl)piperidin-1-yl)methyl)piperidine-1-carbonyl)piperazin-1-yl)-1-oxoisoindolin-2-yl)piperidine-2,6-dione], the IC50 in the experiment with Mino cells was 1000 to 10000 nM. Also, the IC50 with JeKo-1 cells lay in the range of 1000 to 10000 nM. On BTK, the Dmax is above 75% and the 50% degradation concentration (DC50) was above 50 nM.
As to `Nc1ncnc2c1c(-c1ccc(Oc3ccccc3)cc1)nn2[C@@H]1CCCN(C2CCN(CCCN3CCC(c4ccc5c(c4)CN(C4CCC(=O)NC4=O)C5=O)CC3)CC2)C1` (stereo partly drawn) [Compound 154, 3-(5-(1-(3-((R)-3-(4-amino-3-(4-phenoxyphenyl)-1H-pyrazolo[3,4-d]pyrimidin-1-yl)-[1,4′-bipiperidin]-1′-yl)propyl)piperidin-4-yl)-1-oxoisoindolin-2-yl)piperidine-2,6-dione], the IC50 in the experiment with Mino cells was above 10000 nM. Further, the IC50 in the experiment on JeKo-1 cells is above 10000 nM. On BTK, this compound displayed a Dmax above 75% and a DC50 above 50 nM.

Broadly, the Dmax is the greatest extent of degradation seen. A lower Dmax goes with a partial loss of target. In general, DC50 refers to the concentration giving 50% degradation. High values mean degradation only at high concentration, low ones degradation at low concentration.

The record behind these values is patent US12139492B2 (Endotarget Inc., priority 2021, dated 2024).
